Reference: patent US20050049186A1, “Peptides mimicking the biological activity of steroid hormones and their uses” (priority 2000, published 2005)
Read-outs that look alike come from different tables or passages of the source. Peptide text beside a SMILES is read from it.

Columns and labels:
[1] = tested on: creatine kinase (CK) specific activity in rat tissues; assay: Stimulation of creatine kinase specific activity in rat tissues in vivo
Procedure: The control goups received 0.5 ml saline containing 0.5% ethanol or tris-saline alone. The various organs were assayed for CK activity four hours after treatment.

ER α = biological target: T1, ER α (Homo sapiens, UniProt P03372); assay: Receptor binding assay for estrogen receptor alpha; settings: for recognition of / binding activity to estrogen receptor α: summary of Tables 3 to 5
T1 sequence (P03372 1-595): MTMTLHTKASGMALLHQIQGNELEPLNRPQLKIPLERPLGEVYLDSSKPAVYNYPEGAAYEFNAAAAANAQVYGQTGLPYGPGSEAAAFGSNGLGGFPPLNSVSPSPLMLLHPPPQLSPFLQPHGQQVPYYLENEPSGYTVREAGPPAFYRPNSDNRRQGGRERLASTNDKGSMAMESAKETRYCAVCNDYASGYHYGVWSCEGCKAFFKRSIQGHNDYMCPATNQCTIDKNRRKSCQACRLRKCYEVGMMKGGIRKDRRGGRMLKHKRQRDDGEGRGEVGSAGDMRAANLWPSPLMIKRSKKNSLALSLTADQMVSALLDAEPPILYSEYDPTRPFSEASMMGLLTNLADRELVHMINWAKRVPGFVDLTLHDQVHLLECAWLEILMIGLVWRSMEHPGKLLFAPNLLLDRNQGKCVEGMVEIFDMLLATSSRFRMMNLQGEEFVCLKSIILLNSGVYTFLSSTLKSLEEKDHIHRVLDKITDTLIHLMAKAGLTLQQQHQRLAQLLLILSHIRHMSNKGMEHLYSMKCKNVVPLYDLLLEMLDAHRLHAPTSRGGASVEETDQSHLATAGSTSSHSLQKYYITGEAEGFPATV

ER β = ER β (Homo sapiens, UniProt Q92731); assay: Receptor binding assay for estrogen receptor beta; settings: for IC50 to ERβ / IC50: Table 5; for recognition of / binding activity to estrogen receptor β: summary of Tables 3 to 5; for IC50: read-out: IC50 to ERβ
[2] = biological target: anti-estradiol mAb clone 15; assay: Competitive immunoassay: inhibition of binding of labeled E2 (estradiol ovalbumin europium conjugate) to anti-E2 clone 15; set-up: species or system mouse; settings: for IC50: Table 5, estradiol ovalbumin europium conjugate; for inhibition of the binding of estradiol ovalbumin europium conjugate to anti-E2 mAb clone 15 relative to peptides 1 and 2: compared with the linear or cyclic peptides 1 and 2; for inhibition of binding of estradiol ovalbumin europium conjugate to anti-estradiol mAb clone 15: text summary of Table 4
Description: […]. The linear peptide 1 is 15-amino acid long. We further explored the possibility whether smaller peptides derived from peptide 1 may have antibody binding activity and receptor binding activity. In order to find out the minimum amino acid sequence required in the linear peptide 1 for antibody and receptor binding, several peptides with varying length of from 4 to 14 amino acids long were synthesized, and were first evaluated in terms of binding to anti-estradiol (E2) mAb clone 15. The peptides showing similar or better antibody binding activity than the linear peptide 1 were further evaluated in terms of binding to ERα and β.

[3] = immature female rats, four hours after treatment, estradiol 5 μg/rat, peptides and raloxifene 0.5 mg/rat, mean ± S.E.M., n=15
[4] = Table 5, read-out: IC50 to ER α

Sequence of ER β (Q92731 whole entry, species assumed): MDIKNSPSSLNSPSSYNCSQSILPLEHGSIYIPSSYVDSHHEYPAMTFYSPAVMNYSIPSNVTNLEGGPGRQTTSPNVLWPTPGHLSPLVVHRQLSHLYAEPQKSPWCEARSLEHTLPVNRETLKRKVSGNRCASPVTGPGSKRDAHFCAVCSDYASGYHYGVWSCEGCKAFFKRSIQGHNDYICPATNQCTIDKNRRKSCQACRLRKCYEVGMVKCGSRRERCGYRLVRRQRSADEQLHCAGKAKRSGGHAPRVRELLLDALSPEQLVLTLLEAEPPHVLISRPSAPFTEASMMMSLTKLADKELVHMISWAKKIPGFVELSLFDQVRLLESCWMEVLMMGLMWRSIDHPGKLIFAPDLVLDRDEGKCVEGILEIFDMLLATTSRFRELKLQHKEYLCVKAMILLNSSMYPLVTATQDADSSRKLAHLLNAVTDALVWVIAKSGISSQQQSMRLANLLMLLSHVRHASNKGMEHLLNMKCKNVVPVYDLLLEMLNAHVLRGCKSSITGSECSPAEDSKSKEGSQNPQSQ

Compound	IC50 to ERβ (ER β)	IC50 to ER α (ER α; Table 5)	recognition of / binding activity to estrogen receptor α (ER α)	IC50 [2]	inhibition of the binding of estradiol ovalbumin europium conjugate to anti-E2 mAb clone 15 relative to peptides 1 and 2 [2]	recognition of / binding activity to estrogen receptor β (ER β)	IC50 (ER β)	further results
C[C@]12CC[C@@H]3c4ccc(O)cc4CC[C@H]3[C@@H]1CC[C@@H]2O [Estradiol, estradiol]	–	–	–	–	–	–	–	Creatine kinase specific activity (Experimental/control), Aorta [1, 3]: 2.0 ± 0.18; Creatine kinase specific activity (Experimental/control), Diapysis [1, 3]: 1.87 ± 0.1; Creatine kinase specific activity (Experimental/control), Epipysis [1, 3]: 1.37 ± 0.07; Creatine kinase specific activity (Experimental/control), Uterus [1, 3]: 1.37 ± 0.07
CC(C)C[C@@H]1NC(=O)[C@H](C)NC(=O)[C@@H]2CCCN2C(=O)[C@H](CC(C)C)NC(=O)[C@H](CCC(=O)O)NC(=O)[C@H](C)NC(=O)[C@@H](N)CSSC[C@@H](C(=O)O)NC(=O)[C@@H]2CCCN2C(=O)[C@@H]2CCCN2C(=O)[C@@H]2CCCN2C(=O)[C@@H]2CCCN2C(=O)[C@H](CCCCN)NC(=O)[C@H]([C@@H](C)O)NC(=O)[C@H](CCC(=O)O)NC(=O)[C@H](Cc2ccccc2)NC(=O)[C@H](Cc2ccccc2)NC(=O)[C@H](Cc2c[nH]c3ccccc23)NC(=O)[C@H](CCCNC(=N)N)NC(=O)[C@H](CCCCN)NC(=O)[C@H]([C@@H](C)O)NC(=O)[C@@H]2CCCN2C(=O)[C@H](CC(=O)O)NC1=O [Peptide 2] (HELM PEPTIDE1{C.A.E.L.P.A.L.D.P.T.K.R.W.F.F.E.T.K.P.P.P.P.C}$PEPTIDE1,PEPTIDE1,1:R3-23:R3$$$V2.0; N-terminus and C-terminus assumed)	none	–	–	–	–	–	–	IC50 (ER α; FIG. 2, read-out: IC50, binding to ER α): 100 µM
NCCCC[C@H](N)C(=O)N[C@@H](CO)C(=O)N[C@@H](Cc1c[nH]c2ccccc12)C(=O)N[C@@H](Cc1ccccc1)C(=O)N[C@@H](Cc1ccccc1)C(=O)N[C@@H](CCC(=O)O)C(=O)O [Peptide 19, KSWFFE] (H-KSWFFE-OH; N-terminus and C-terminus assumed)	None	None	did not show any binding activity	0.04 µM	one and half order of magnitude better	did not show any binding activity	–	–
NCCCC[C@H](N)C(=O)N1CCC[C@H]1C(=O)N[C@@H](Cc1c[nH]c2ccccc12)C(=O)N[C@@H](Cc1ccccc1)C(=O)N[C@@H](Cc1ccccc1)C(=O)N[C@@H](CCC(=O)O)C(=O)O [Peptide 21, KPWFFE] (H-KPWFFE-OH)	–	–	recognized	0.045 µM	one and half order of magnitude better	recognized	> 500 µM	–
CC(C)[C@H](N)C(=O)N[C@@H](CCCNC(=N)N)C(=O)N[C@@H](Cc1c[nH]c2ccccc12)C(=O)N[C@@H](Cc1ccccc1)C(=O)N[C@@H](Cc1ccccc1)C(=O)N[C@@H](CCC(=O)O)C(=O)O [Peptide 39, VRWFFE] (H-VRWFFE-OH)	–	–	–	–	–	–	< 100 µM	IC50 (ER α; [4]): < 100 µM
N=C(N)NCCC[C@H](NC(=O)[C@@H](N)CCCCN)C(=O)N[C@@H](Cc1c[nH]c2ccccc12)C(=O)N[C@@H](Cc1ccccc1)C(=O)N[C@@H](Cc1ccccc1)C(=O)N[C@@H](CCC(=O)O)C(=O)O [Peptide 44, KRWFFE] (H-KRWFFE-OH)	–	–	recognized	0.035 µM	one and half order of magnitude better	recognized	400 µM	IC50 (ER α; [4]): 400 µM
C[C@H](N)C(=O)N[C@@H](CCCNC(=N)N)C(=O)N[C@@H](Cc1c[nH]c2ccccc12)C(=O)N[C@@H](Cc1ccccc1)C(=O)N[C@@H](Cc1ccccc1)C(=O)N[C@@H](CCC(=O)O)C(=O)O [Peptide A-43, ARWFFE] (H-ARWFFE-OH)	None	–	recognized only the estrogen receptor α	0.04 µM	one and half order of magnitude better	not β	–	inhibition of binding of estradiol ovalbumin europium conjugate to anti-estradiol mAb clone 15 [2]: showed inhibition
C[C@H](NC(=O)[C@@H](N)CCCCN)C(=O)N[C@@H](Cc1c[nH]c2ccccc12)C(=O)N[C@@H](Cc1ccccc1)C(=O)N[C@@H](Cc1ccccc1)C(=O)N[C@@H](CCC(=O)O)C(=O)O [Peptide A-44, KAWFFE] (H-KAWFFE-OH)	–	–	recognized	0.04 µM	one and half order of magnitude better	recognized	250 µM	IC50 (ER α; [4]): 250 µM; inhibition of binding of estradiol ovalbumin europium conjugate to anti-estradiol mAb clone 15 [2]: showed inhibition
CC(C)[C@H](N)C(=O)N1CCC[C@H]1C(=O)N[C@@H](Cc1c[nH]c2ccccc12)C(=O)N[C@@H](Cc1ccccc1)C(=O)N[C@@H](Cc1ccccc1)C(=O)N[C@@H](CCC(=O)O)C(=O)O [Peptide B33, VPWFFE] (H-VPWFFE-OH; N-terminus and C-terminus assumed)	None	None	did not show any binding activity	0.006 µM	one and half order of magnitude better	did not show any binding activity	–	–
CC(C)[C@H](N)C(=O)N[C@@H](CO)C(=O)N[C@@H](Cc1c[nH]c2ccccc12)C(=O)N[C@@H](Cc1ccccc1)C(=O)N[C@@H](Cc1ccccc1)C(=O)N[C@@H](CCC(=O)O)C(=O)O [Peptide B34, VSWFFE] (H-VSWFFE-OH)	–	–	recognized	0.006 µM	one and half order of magnitude better	recognized	100 µM	IC50 (ER α; [4]): 250 µM
CC(C)[C@H](N)C(=O)N[C@@H](CCCNC(=N)N)C(=O)N[C@@H](Cc1c[nH]c2ccccc12)C(=O)N[C@@H](Cc1ccccc1)C(=O)N[C@@H](Cc1ccc(O)cc1)C(=O)N[C@@H](CCC(=O)O)C(=O)O [Peptide B35, VRWFYE] (H-VRWFYE-OH; N-terminus and C-terminus assumed)	None	None	did not show any binding activity	0.006 µM	one and half order of magnitude better	did not show any binding activity	–	–
CC[C@H](C)[C@H](N)C(=O)N[C@@H](CCCNC(=N)N)C(=O)N[C@@H](Cc1c[nH]c2ccccc12)C(=O)N[C@@H](Cc1ccccc1)C(=O)N[C@@H](Cc1ccccc1)C(=O)N[C@@H](CCC(=O)O)C(=O)O [Peptide B37, IRWFFE] (H-IRWFFE-OH)	–	None	–	0.02 µM	one and half order of magnitude better	recognized only the ERβ	250 µM	–
CC(C)C[C@H](N)C(=O)N[C@@H](CCCNC(=N)N)C(=O)N[C@@H](Cc1c[nH]c2ccccc12)C(=O)N[C@@H](Cc1ccccc1)C(=O)N[C@@H](Cc1ccccc1)C(=O)N[C@@H](CCC(=O)O)C(=O)O [Peptide B38, LRWFFE] (H-LRWFFE-OH; N-terminus and C-terminus assumed)	None	None	did not show any binding activity	0.04 µM	one and half order of magnitude better	did not show any binding activity	–	–
O=C(c1ccc(OCCN2CCCCC2)cc1)c1c(-c2ccc(O)cc2)sc2cc(O)ccc12 [Raloxifene, raloxifene]	–	–	–	–	–	–	–	Creatine kinase specific activity (Experimental/control), Aorta [1, 3]: 1.63 ± 0.04; Creatine kinase specific activity (Experimental/control), Diapysis [1, 3]: 1.75 ± 0.13; Creatine kinase specific activity (Experimental/control), Epipysis [1, 3]: 1.41 ± 0.05; Creatine kinase specific activity (Experimental/control), LV (left ventricle) [1, 3]: 1.34 ± 0.11; Creatine kinase specific activity (Experimental/control), Uterus [1, 3]: 0.99 ± 0.17; blocking of the increase in CK activity caused by estradiol or peptides 1 and 2 ([1]; rats treated with combination with raloxifene): blocked in all the tissues with the exception of the epiphysis
WFFE [Peptide 46]	–	–	did not show any inhibition	–	–	–	–	–
